In PubChem BioAssay (NCI):
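Assay format: 96-well plates, 48-hour exposure. Here, GI50 denotes the concentration required for 50% inhibition of growth. The concentration for full growth arrest is given as TGI.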

What was measured:
Experiment in all cases: DTP human tumour cell line panel, 48 h; in the data active means GI50 below about 0.43 µM; inactive means the rest
MCF7 breast = test system: MCF7 breast
SR leukemia = test system: SR leukemia
786-0 renal = test system: 786-0 renal
UACC-257 melanoma = test system: UACC-257 melanoma
OVCAR-3 ovarian = test system: OVCAR-3 ovarian
COLO 205 colon = test system: COLO 205 colon
MDA-MB-435 = test system: MDA-MB-435
MALME-3M melanoma = test system: MALME-3M melanoma
HOP-62 NSCLC = test system: HOP-62 NSCLC
SK-OV-3 ovarian = test system: SK-OV-3 ovarian
PC-3 prostate = test system: PC-3 prostate
K-562 leukemia = test system: K-562 leukemia
T-47D breast = test system: T-47D breast
HS 578T breast = test system: HS 578T breast
BT-549 breast = test system: BT-549 breast
HOP-92 NSCLC = test system: HOP-92 NSCLC
OVCAR-8 ovarian = test system: OVCAR-8 ovarian
SK-MEL-2 melanoma = test system: SK-MEL-2 melanoma
A498 renal = test system: A498 renal
KM12 colon = test system: KM12 colon
TK-10 renal = test system: TK-10 renal
A549 NSCLC = test system: A549 NSCLC
SW-620 colon = test system: SW-620 colon
MOLT-4 leukemia = test system: MOLT-4 leukemia
LOX IMVI melanoma = test system: LOX IMVI melanoma
U251 CNS = test system: U251 CNS
EKVX NSCLC = test system: EKVX NSCLC
OVCAR-5 ovarian = test system: OVCAR-5 ovarian
SK-MEL-28 melanoma = test system: SK-MEL-28 melanoma
HCT-116 colon = test system: HCT-116 colon
SNB-19 CNS = test system: SNB-19 CNS
ACHN renal = test system: ACHN renal
HCC-2998 colon = test system: HCC-2998 colon
HCT-15 colon = test system: HCT-15 colon
SF-295 CNS = test system: SF-295 CNS
DU-145 prostate = test system: DU-145 prostate
RPMI-8226 leukemia = test system: RPMI-8226 leukemia
OVCAR-4 ovarian = test system: OVCAR-4 ovarian
NCI-H522 lung = test system: NCI-H522 lung
SF-539 CNS = test system: SF-539 CNS
HL-60(TB) leukemia = test system: HL-60(TB) leukemia
HT29 colon = test system: HT29 colon
UACC-62 melanoma = test system: UACC-62 melanoma
NCI/ADR-RES ovarian = test system: NCI/ADR-RES ovarian
UO-31 renal = test system: UO-31 renal
RXF 393 renal = test system: RXF 393 renal
CCRF-CEM leukemia = test system: CCRF-CEM leukemia
SN12C renal = test system: SN12C renal
IGROV1 ovarian = test system: IGROV1 ovarian
MDA-MB-231 breast = test system: MDA-MB-231 breast
NCI-H23 lung = test system: NCI-H23 lung
NCI-H460 lung = test system: NCI-H460 lung
SNB-75 CNS = test system: SNB-75 CNS
NCI-H226 lung = test system: NCI-H226 lung
M14 melanoma = test system: M14 melanoma
SF-268 CNS = test system: SF-268 CNS
CAKI-1 renal = test system: CAKI-1 renal
SK-MEL-5 melanoma = test system: SK-MEL-5 melanoma

COc1cc(/C=C2\CCCC3=C2N=C2SC(C)=NN2C3c2cc(OC)c(OC)c(OC)c2)cc(OC)c1OC (centres undefined)
inactive: GI50 (786-0 renal) > 100 µM | GI50 (UACC-257 melanoma) > 100 µM | GI50 (OVCAR-3 ovarian) 0.58 µM | GI50 (COLO 205 colon) 0.429 µM | GI50 (MALME-3M melanoma) > 100 µM | GI50 (HOP-62 NSCLC) > 100 µM | GI50 (SK-OV-3 ovarian) > 100 µM | GI50 (PC-3 prostate) > 100 µM | GI50 (T-47D breast) > 100 µM | GI50 (HS 578T breast) > 100 µM | GI50 (BT-549 breast) > 100 µM | GI50 (HOP-92 NSCLC) > 100 µM | GI50 (SK-MEL-2 melanoma) > 100 µM | GI50 (TK-10 renal) > 100 µM | GI50 (A549 NSCLC) > 100 µM
active: GI50 (MCF7 breast) 0.319 µM | GI50 (SR leukemia) 0.347 µM | GI50 (MDA-MB-435) 0.341 µM | GI50 (K-562 leukemia) 0.42 µM | GI50 (OVCAR-8 ovarian) 0.311 µM | GI50 (A498 renal) 0.153 µM | GI50 (KM12 colon) 0.322 µM | GI50 (SW-620 colon) 0.41 µM | GI50 (MOLT-4 leukemia) 0.391 µM
> 100 µM: TGI (MCF7 breast) | TGI (SR leukemia) | TGI (786-0 renal) | TGI (UACC-257 melanoma) | TGI (OVCAR-3 ovarian) | TGI (COLO 205 colon) | TGI (MDA-MB-435) | TGI (MALME-3M melanoma) | TGI (HOP-62 NSCLC) | TGI (SK-OV-3 ovarian) | TGI (PC-3 prostate) | TGI (K-562 leukemia) | TGI (T-47D breast) | TGI (HS 578T breast) | TGI (BT-549 breast) | TGI (HOP-92 NSCLC) | TGI (OVCAR-8 ovarian) | TGI (SK-MEL-2 melanoma) | TGI (A498 renal) | TGI (KM12 colon) | TGI (TK-10 renal) | TGI (A549 NSCLC) | TGI (SW-620 colon) | TGI (MOLT-4 leukemia)

CCn1c(-c2nonc2N)nc2c(N3CCCC3)nccc21
> 25 µM: TGI (MCF7 breast) | TGI (LOX IMVI melanoma) | TGI (786-0 renal) | TGI (U251 CNS) | TGI (UACC-257 melanoma) | TGI (EKVX NSCLC) | TGI (OVCAR-3 ovarian) | TGI (COLO 205 colon) | TGI (OVCAR-5 ovarian) | TGI (SK-MEL-28 melanoma) | TGI (HCT-116 colon) | TGI (SNB-19 CNS) | TGI (ACHN renal) | TGI (HCC-2998 colon) | TGI (MDA-MB-435) | TGI (MALME-3M melanoma) | TGI (HCT-15 colon) | TGI (HOP-62 NSCLC) | TGI (SF-295 CNS) | TGI (DU-145 prostate) | TGI (RPMI-8226 leukemia) | TGI (OVCAR-4 ovarian) | TGI (SK-OV-3 ovarian) | TGI (NCI-H522 lung) | TGI (SF-539 CNS) | TGI (HL-60(TB) leukemia) | TGI (PC-3 prostate) | TGI (K-562 leukemia) | TGI (HT29 colon) | TGI (T-47D breast) | TGI (UACC-62 melanoma) | TGI (NCI/ADR-RES ovarian) | TGI (UO-31 renal) | TGI (RXF 393 renal) | TGI (HS 578T breast) | TGI (CCRF-CEM leukemia) | TGI (BT-549 breast) | TGI (SN12C renal) | TGI (OVCAR-8 ovarian) | TGI (SK-MEL-2 melanoma) | TGI (A498 renal) | TGI (KM12 colon) | TGI (IGROV1 ovarian) | TGI (MDA-MB-231 breast) | TGI (NCI-H23 lung) | TGI (NCI-H460 lung) | TGI (TK-10 renal) | TGI (SNB-75 CNS) | TGI (NCI-H226 lung) | TGI (M14 melanoma) | TGI (A549 NSCLC) | TGI (SW-620 colon) | TGI (SF-268 CNS) | TGI (CAKI-1 renal) | TGI (SK-MEL-5 melanoma) | TGI (MOLT-4 leukemia)
22.9 µM: TGI (HOP-92 NSCLC)
inactive: GI50 (MCF7 breast) 5.27 µM | GI50 (LOX IMVI melanoma) 8.91 µM | GI50 (786-0 renal) > 18.6 µM | GI50 (U251 CNS) 9.43 µM | GI50 (UACC-257 melanoma) > 22.4 µM | GI50 (EKVX NSCLC) > 25 µM | GI50 (OVCAR-3 ovarian) 14.7 µM | GI50 (COLO 205 colon) 11 µM | GI50 (OVCAR-5 ovarian) 12.5 µM | GI50 (SK-MEL-28 melanoma) > 25 µM | GI50 (HCT-116 colon) 8.47 µM | GI50 (SNB-19 CNS) 19.4 µM | GI50 (ACHN renal) 9.73 µM | GI50 (HCC-2998 colon) > 25 µM | GI50 (MDA-MB-435) 12.2 µM | GI50 (MALME-3M melanoma) > 25 µM | GI50 (HCT-15 colon) 11.2 µM | GI50 (HOP-62 NSCLC) 12.3 µM | GI50 (SF-295 CNS) 9.27 µM | GI50 (DU-145 prostate) 14 µM | GI50 (RPMI-8226 leukemia) 16.5 µM | GI50 (OVCAR-4 ovarian) 10.3 µM | GI50 (SK-OV-3 ovarian) > 24 µM | GI50 (NCI-H522 lung) 10.9 µM | GI50 (SF-539 CNS) 10.8 µM | GI50 (HL-60(TB) leukemia) 24.9 µM | GI50 (PC-3 prostate) 14.4 µM | GI50 (K-562 leukemia) 10.3 µM | GI50 (HT29 colon) 7.97 µM | GI50 (T-47D breast) 20.4 µM | GI50 (UACC-62 melanoma) 16.2 µM | GI50 (NCI/ADR-RES ovarian) 10.7 µM | GI50 (UO-31 renal) 7.48 µM | GI50 (RXF 393 renal) 9.63 µM | GI50 (HS 578T breast) > 19.4 µM | GI50 (CCRF-CEM leukemia) 18.4 µM | GI50 (BT-549 breast) > 21.8 µM | GI50 (HOP-92 NSCLC) 3.88 µM | GI50 (SN12C renal) 15 µM | GI50 (OVCAR-8 ovarian) 9.88 µM | GI50 (SK-MEL-2 melanoma) > 25 µM | GI50 (A498 renal) 8.39 µM | GI50 (KM12 colon) 15.7 µM | GI50 (IGROV1 ovarian) 12 µM | GI50 (MDA-MB-231 breast) > 18.8 µM | GI50 (NCI-H23 lung) 14.9 µM | GI50 (NCI-H460 lung) 8.95 µM | GI50 (TK-10 renal) 9.31 µM | GI50 (SNB-75 CNS) 10.3 µM | GI50 (NCI-H226 lung) 10 µM | GI50 (M14 melanoma) 24.5 µM | GI50 (A549 NSCLC) 13.2 µM | GI50 (SW-620 colon) 8.07 µM | GI50 (SF-268 CNS) 13.3 µM | GI50 (CAKI-1 renal) 13.4 µM | GI50 (SK-MEL-5 melanoma) 19 µM | GI50 (MOLT-4 leukemia) 10.5 µM

CC(=O)Oc1ccc2c(-c3ccccc3)c(Oc3ccc(Cl)cc3)c(=O)oc2c1
22.6 µM: TGI (SF-268 CNS)
30 µM: TGI (786-0 renal) | TGI (SNB-19 CNS)
39.8 µM: TGI (MCF7 breast) | TGI (HT29 colon)
27.4 µM: TGI (DU-145 prostate)
37.8 µM: TGI (UACC-257 melanoma)
32.3 µM: TGI (CAKI-1 renal)
22.4 µM: TGI (HOP-92 NSCLC)
19.7 µM: TGI (HCC-2998 colon)
32.5 µM: TGI (NCI-H226 lung)
28.8 µM: TGI (OVCAR-3 ovarian)
28.9 µM: TGI (MALME-3M melanoma)
32.8 µM: TGI (MDA-MB-231 breast)
27.9 µM: TGI (NCI-H460 lung)
31.1 µM: TGI (SF-539 CNS)
36.7 µM: TGI (LOX IMVI melanoma)
31.6 µM: TGI (SK-MEL-28 melanoma) | TGI (K-562 leukemia)
37 µM: TGI (M14 melanoma)
26.3 µM: TGI (TK-10 renal)
39.4 µM: TGI (SW-620 colon)
30.8 µM: TGI (A498 renal)
32.4 µM: TGI (OVCAR-5 ovarian) | TGI (SF-295 CNS)
> 100 µM: TGI (RPMI-8226 leukemia) | TGI (HL-60(TB) leukemia)
19.5 µM: TGI (SNB-75 CNS)
32.6 µM: TGI (SK-MEL-5 melanoma)
32.9 µM: TGI (BT-549 breast)
35.7 µM: TGI (CCRF-CEM leukemia)
28 µM: TGI (HCT-116 colon)
16.3 µM: TGI (U251 CNS)
33.2 µM: TGI (RXF 393 renal)
27.5 µM: TGI (KM12 colon)
43.8 µM: TGI (HS 578T breast)
39.2 µM: TGI (SN12C renal)
34.7 µM: TGI (MOLT-4 leukemia)
34.9 µM: TGI (HOP-62 NSCLC)
37.7 µM: TGI (PC-3 prostate)
9.51 µM: TGI (NCI-H522 lung)
10 µM: TGI (HCT-15 colon)
29.4 µM: TGI (IGROV1 ovarian)
35.8 µM: TGI (OVCAR-4 ovarian)
84.4 µM: TGI (SR leukemia)
36.8 µM: TGI (OVCAR-8 ovarian)
29 µM: TGI (EKVX NSCLC)
30.5 µM: TGI (ACHN renal)
27.6 µM: TGI (A549 NSCLC)
44.6 µM: TGI (NCI-H23 lung)
28.4 µM: TGI (UO-31 renal)
21.2 µM: TGI (T-47D breast)
